Reference: ChEMBL document CHEMBL1156994, “Chemopreventive activities of etodolac and oxyphenbutazone against mouse skin carcinogenesis” (Bioorg Med Chem Lett, 2010)

Assays:
Mus musculus [1] = assay: Toxicity in ICR mouse at 0.0025%, po; assay type: organism-based; conditions: in vivo
Mus musculus [2] = assay: Inhibition of DMBA-induced/TPA-promoted skin carcinogenesis in ICR mouse assessed as reduction in tumor burden at 0.0025% topically applied qd treated one week before DMBA-TPA challenge after 20 weeks relative to control; assay type: functional
Mus musculus [3] = assay: Inhibition of peroxynitrite-induced/TPA promoted skin carcinogenesis in HOS-HR-1 mouse assessed as decrease in tumor incidence at 0.0025%, po treated one week before peroxynitrite-TPA challenge after 20 weeks relative to control; assay type: functional
Mus musculus [4] = assay: Inhibition of peroxynitrite-induced/TPA promoted skin carcinogenesis in HOS-HR-1 mouse assessed as increase in tumor latency period at 0.0025%, po treated one week before peroxynitrite-TPA challenge after 20 weeks relative to control; assay type: functional
Mus musculus [5] = assay: Inhibition of peroxynitrite-induced/TPA promoted skin carcinogenesis in HOS-HR-1 mouse assessed as decrease in tumor burdon at 0.0025%, po treated one week before peroxynitrite-TPA challenge after 20 weeks relative to control; assay type: functional
Mus musculus [6] = assay: Toxicity in HOS-HR-1 mouse at 0.0025%, po; assay type: organism-based; conditions: in vivo

| Compound | Activity (Mus musculus [1]) | inhibition (INH) (Mus musculus [2]) [%] | inhibition (INH) (Mus musculus [3]) [%] | inhibition (INH) (Mus musculus [4]) [%] | inhibition (INH) (Mus musculus [5]) [%] | Activity (Mus musculus [6]) |
| --- | --- | --- | --- | --- | --- | --- |
| CCc1cccc2c3c([nH]c12)C(CC)(CC(=O)O)OCC3 (stereo unspecified) [ETODOLAC] | Non-toxic | 40 |  |  |  |  |
| CCCCC1C(=O)N(c2ccccc2)N(c2ccc(O)cc2)C1=O (stereo unspecified) [OXYPHENBUTAZONE ANHYDROUS] |  |  | >20 | 29 | >50 | Non-toxic |
